Legend:
Experiment in all cases: relative viability (nuclei count vs DMSO), 5 days (fraction); higher = more cells survive
BAY61-3606 + Navitoclax = compound: COC1=C(C=C(C=C1)C2=CC3=NC=CN3C(=N2)NC4=C(C=CC=N4)C(=O)N)OC [BAY61-3606] + CC1(C)CCC(c2ccc(Cl)cc2)=C(CN2CCN(c3ccc(C(=O)NS(=O)(=O)c4ccc(N[C@H](CCN5CCOCC5)CSc5ccccc5)c(S(=O)(=O)C(F)(F)F)c4)cc3)CC2)C1 [Navitoclax] (partner 0.5 µM)
In short: (§1)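 Lung cancer cell lines were pin-tool dosed in 1536-well plates on the day after seeding, with either a lone drug or a fixed anchor-drug dose plus five library-drug doses (not always all listed) in √10 steps. Nuclei were counted on 4× images after 5 days. Relative viability is the ratio of treated-well to vehicle-well nuclei counts, with each value a median of duplicate plates.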

BAY61-3606 + Foretinib = compound: COC1=C(C=C(C=C1)C2=CC3=NC=CN3C(=N2)NC4=C(C=CC=N4)C(=O)N)OC [BAY61-3606] + COc1cc2c(Oc3ccc(NC(=O)C4(C(=O)Nc5ccc(F)cc5)CC4)cc3F)ccnc2cc1OCCCN1CCOCC1 [Foretinib] (partner 0.25 µM)
In short: as §1

Doxorubicin = compound: COc1cccc2c1C(=O)c1c(O)c3c(c(O)c1C2=O)C[C@@](O)(C(=O)CO)C[C@@H]3O[C@H]1C[C@H](N)[C@H](O)[C@H](C)O1 [Doxorubicin]
In short: (§2)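 Viability was defined as treated-well nuclei divided by vehicle-well nuclei, with the median taken over replicate plates. Cells from lung cancer lines sat overnight at 37 °C in 1536-well plates, received five √10-spaced library-drug doses by pinning on vehicle-anchored plates, and grew 5 days without medium change before one-step fixation, permeabilisation and Hoechst staining, 4× imaging and MetaXpress nuclear counts. Only plates with control CV under 25% and at least one doubling were kept.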

BAY61-3606 = compound: COC1=C(C=C(C=C1)C2=CC3=NC=CN3C(=N2)NC4=C(C=CC=N4)C(=O)N)OC [BAY61-3606]
In short: as §2

Cell Line	relative viability (BAY61-3606 + Navitoclax; first compound 0.02 µM)	relative viability (BAY61-3606 + Navitoclax; first compound 0.06325 µM)	relative viability (BAY61-3606 + Navitoclax; first compound 0.2 µM)	relative viability (BAY61-3606 + Navitoclax; first compound 0.6325 µM)	relative viability (BAY61-3606 + Navitoclax; first compound 2 µM)	relative viability (BAY61-3606 + Foretinib; first compound 0.02 µM)	relative viability (BAY61-3606 + Foretinib; first compound 0.06325 µM)	relative viability (BAY61-3606 + Foretinib; first compound 0.2 µM)	relative viability (BAY61-3606 + Foretinib; first compound 0.6325 µM)	relative viability (BAY61-3606 + Foretinib; first compound 2 µM)	relative viability (Doxorubicin; 0.001 µM)	relative viability (Doxorubicin; 0.003162 µM)	relative viability (Doxorubicin; 0.01 µM)	relative viability (Doxorubicin; 0.03162 µM)	relative viability (Doxorubicin; 0.1 µM)	relative viability (BAY61-3606; 0.02 µM)	relative viability (BAY61-3606; 0.06325 µM)	relative viability (BAY61-3606; 0.2 µM)	relative viability (BAY61-3606; 0.6325 µM)	relative viability (BAY61-3606; 2 µM)
RERF-LC-KJ	0.759	0.9	0.975	0.83	0.876	0.899	0.922	0.828	0.886	0.779	0.986	1.04	0.986	0.713	0.904	1.04	1.03	0.93	1.06	0.791
NCI-H647	1.21	1.05	1.04	1.26	0.663	1.24	1.1	1.14	1.27	0.878	0.953	1.07	0.987	0.495	0.201	1.15	0.897	0.946	0.979	0.616
LU99A	0.845	0.762	0.984	0.828	0.396	0.915	0.656	0.858	0.63	0.526	0.938	1.02	0.893	0.838	0.813	1.04	0.953	1.01	0.967	0.702
NCI-H460	1.27	1.28	1.06	1.1	0.756	1.05	1	1.05	0.973	0.945	0.957	0.96	0.859	0.468	0.141	1.04	1.03	0.959	0.998	0.891
PC-14	1.04	1.11	0.983	1.01	0.982	0.992	0.957	0.911	0.963	0.931	0.974	1.05	1.01	0.789	0.52	1.07	1.04	0.916	0.992	0.877
PC-3 [JPC-3]	0.826	0.849	0.773	0.805	0.776	–	1.03	1.08	1.06	0.949	1.08	1.05	1.04	0.998	0.982	1.04	1	1	1.02	0.939
NCI-H1944	1.12	1.1	1.01	1.02	1.04	0.912	0.815	0.858	0.886	0.396	0.929	1.02	0.902	0.692	0.802	1.08	1	0.95	0.785	0.619
NCI-H1755	1.03	1.02	0.993	1.06	0.782	0.932	0.867	0.974	0.913	0.882	0.999	0.979	1	1.03	1.02	1.05	1	0.995	1.05	0.988
NCI-H1299	1.05	1.06	1.05	1.07	1.05	1.12	1.07	1.11	1.03	1.07	1.02	1.05	0.984	1.02	0.943	1.02	1.01	1.02	1.04	0.989
H3255	0.555	0.54	0.502	0.494	0.609	0.969	1	0.841	0.995	0.829	0.892	0.993	0.931	0.849	0.727	0.976	0.905	0.928	1.16	0.898
201T	1.22	1.2	1.23	1.21	1.3	1.19	1.05	1.13	1.17	1.11	0.867	0.985	0.987	0.978	0.942	0.996	0.959	1	1.01	0.95
NCI-H2228	1.18	0.736	0.658	1.08	0.713	0.891	0.914	0.714	0.858	0.645	0.859	1	0.822	0.606	0.339	1.18	0.922	0.944	1.06	0.792
IA-LM	0.812	–	0.827	0.793	0.725	1.23	1.09	1.01	1.13	0.959	0.902	1.04	0.889	0.749	0.508	0.984	0.864	0.956	1.03	0.86
CAL-12T	1.23	1.42	1.2	1.27	0.67	1.12	1.19	1	1.19	0.656	0.973	1.05	0.926	0.541	0.349	1.02	1.07	0.938	0.99	0.628
NCI-H2085	1.31	1.23	1.12	1.33	1.01	1.07	0.947	0.995	0.871	0.917	0.971	0.996	0.994	0.926	0.95	1.08	1.03	0.995	1.08	0.934
NCI-H2023	1.03	1.05	1.07	1.02	0.873	0.864	0.906	1.03	0.812	0.812	0.873	0.903	0.706	0.209	0.0985	1.14	1.05	1	1.16	0.697
